Assay results as given in US20050187409A1, “Inhibitors of RNase P proteins as antibacterial compounds” (priority 2003, published 2005).
In brackets after ≈: the same amount, converted by molar mass. Several values for one entry are separate records, joined by “and”; a condition that tells them apart may be missing. Equal values may be shown once. Read-outs that look alike come from different tables or passages of the source.

Assays:
[1] = target: T1, N. gonorrhoeae RNase P holoenzyme (Neisseria gonorrhoeae, UniProt Q5F4W3); assay: biochemical; conditions: 32P-labelled pGln substrate, room temperature; read-out: N. gonorrhoeae Gel assay IC50(μM) (Example 16)
T1 sequence (Q5F4W3 1-121): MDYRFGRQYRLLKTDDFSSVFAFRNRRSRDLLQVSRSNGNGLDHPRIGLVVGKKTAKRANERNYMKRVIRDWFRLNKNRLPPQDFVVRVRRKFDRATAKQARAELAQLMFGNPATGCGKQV
Method: RNase P Inhibition Polyacrylamide Gel Assay
The substrate, the precursor of tRNA^Gln, (pGln), from Synechocystis (Pascual and Vioque, 1999), was synthesized in vitro from the corresponding cDNA by T7 RNA polymerase in the presence of α^32P-GTP. Each control RNase P reaction of 10 μl contained 50 mM Tris-HCl (pH 7.8), 10 mM MgCl2, 100 mM NH4Cl, 1 mM dithiothreitol, and 0.4-1.0 pmol pGln substrate, radiolabeled to a specific activity of 1000-10,000 cpm/pmol. The reaction mixture, containing 0.1-1 nM holoenzyme, was incubated for 5-60 min at room temperature (18-24° C.), and the reaction was terminated by addition of an equal volume of 40 mM EDTA/8 M urea. The samples were electrophoresed in denaturing 8% polyacrylamide gels. The activity was quantified by exposure of the gel to a phosphorimaging screen. For test reactions that require the addition of compounds, the RNA subunits were pre-incubated with compound for 10 min at room temperature in the presence of buffer, followed by addition of the protein subunit. After a further 10 minutes of incubation, the radiolabeled substrate was added, and the reaction initiated. Products were analyzed as just described. The IC50 was the concentration of compound that was required to inhibit RNase P activity by 50%.

[2] = system: N. gonorrhoeae; assay: Bacterial inhibition assay (growth, MTS readout); type: cell-based; conditions: CAMHB-3% LHB medium, 35° C., 5% CO2, 24 hours
Method: (§1) Compounds of the invention (see Table 5) were assayed for their ability to inhibit bacterial growth. Compounds were diluted from 10 mM DMSO stocks to 3 mM and 1 mM in DMSO. The compounds were further diluted from these stocks into saline for 200, 120, and 20 μM stocks. Control antibiotics were diluted similarly. Overnight cultures of bacteria were made in the following manner. N. gonorrhea was streaked onto a chocolate agar plate and incubated at 35° C./5% CO2. Rather than make an overnight culture of S. pyogenes, a loopful of S. pyogenes from a blood plate or a stock plate was used the following day for direct cell suspension.
(§2) On the following day bacteria were prepared by dilution into saline with O.D. […] readings taken to determine the concentration of the bacteria. CFUs (colony forming units) were determined using the formula: CFU/mL=OD625×(1.5×10^8 CFU/mL/OD McFarland std)×dilution. The four bacterial cultures were diluted initially to 5.5×10^7 CFU/mL. The bacteria were then further diluted into medium to 5.5×10^5 CFU/mL for S. pyogenes and 5.5×10^6 CFU/mL for N. gonorrhea. S. pyogenes and N. gonorrhea were grown in CAMHB-3% LHB medium. The bacteria were added one per plate at 200 μL per well. Compounds were added in 10 μL aliquots for final concentrations of 10, 3, and 1 μM in duplicate. Control antibiotics, penicillin for S. pyogenes and ciprofloxacin for N. gonorrhea, were added from 0.8 mg/ml to 0.003 mg/ml. Plates were incubated at 35° C. with O2 for 16-20 hours for S. pyogenes, and read at OD665 in a Victor2 plate reader. Plates were incubated at 35° C. with 5% CO2 for 24 hours for N. gonorrhea at which time 40 μL of MTS reagent is added per well and incubated for 1 hour in same incubator. The plates were read at OD490. Compounds were tested at 1 μM, 3 μM, and 10 μM concentrations. The results, which are expressed as a percentage of the control, were calculated using equation 2. In this equation, O.D. is optical density; (O.D. compounds+bacteria) is the optical density observed for bacteria grown in the presence of a compound of the invention; (O.D. blank) is the optical density in the absence of bacteria; and (O.D. bacteria) is the optical density observed for bacteria growing uninhibited. Other RNase P inhibitors may be tested similarly using any bacteria of interest. [formula]

[3] = target: N. gonorrhea RNase P (M1 RNA + C5 protein) (Neisseria gonorrhoeae, UniProt Q5F4W3); assay: Time resolved fluorescence (TRF) RNase P inhibition assay; type: biochemical; conditions: 30 min enzyme reaction, ptGLN substrate
Source text: The ability of compounds of the invention to inhibit RNase P enzymes can be assessed by standard techniques. For example, the cleavage of ptRNA^Gln by the enzyme N. Gonorrhea RNase P, can be monitored in the presence and absence of a candidate compound as described in the Example 15. The progress of the RNase P-mediated cleavage reaction can be assessed by measuring the […] hybridized to the cleaved substrate.
Time Resolved Fluorescence RNase P Inhibition Assay
96-well Nunc MaxiSorp FluoroNunc plates were coated with 50 μl/well of 1 μg/ml of streptavidin in base buffer (150 mM KCl, 5 mM MgCl2, 50 mM Tris, pH 7.6) and incubated overnight. The plates were washed using TRF.96 protocol, and then blocked with 150 μl of a 1 mg/ml BSA solution in base buffer and incubated with shaking for sixty minutes. The plates were then washed twice with base buffer plus 0.01% Tween20. 50 μl of 40 nM T17-bt (biotinylated DNA oligonucleotide complementary to the RNaseP substrate leader sequence used to capture intact RNaseP substrate) was then added to all wells, and the plates were incubated with shaking for 1 hr.
A 0.4 nM solution of N. gonorrhea M1 RNA was made from a 1 μM stock solution. A 0.5 nM solution of N. gonorrhea C5 protein is made by diluting a 10 μM stock. ΔUL-ptGLN UTP-bt (10 μM stock) was diluted into PA buffer for a concentration of 40 nM.
Compounds were serially diluted in DMSO from 20 mM stocks to 6, 2, 0.6, 0.2, and 0.06 mM dilutions. These titrations were then diluted (2 μl to 100) in PA buffer, and 12.5 μl of each concentration was added in duplicate to a 96-well V-bottom polypropylene plate. The highest concentration was put in row G and the lowest in row B. Rows A & H received 12.5 μl of DMSO/PA buffer.
The enzyme reaction was initiated in the V-bottom polypropylene plates containing compound dilutions by adding 12.5 μl of the N. gonorrhea M1 solution to rows A-G. PA buffer was added to row H. 12.5 μl of the C5 solution was added similarly to the M1 solutions. 12.5 μl of the substrate solution was then added to all wells. The plates were incubated for 30 minutes at which time 12.5 μl of stop buffer was added to all wells. (Stop buffer: 500 μg/ml polyC/50 nM SA-Eu in 335 mM MgCl2 PA buffer).
The T17-biotin-coated plate was washed three times, and 37.5 μl of 75 mM MgCl2 PA buffer was added to each well. After 30 minutes incubation with the stop buffer, 12.5 μl from all of the enzyme reaction wells was transferred to the T17 plates. The plates were then incubated for 1.5 hr at room temperature with shaking. The plates were washed three times and 40 μl of Delfia enhancement solution (Wallac Oy) was added to all wells. The plates were then read on the Victor 2 plate reader.

[4] = system: S. pyogenes; assay: Bacterial inhibition assay (growth, OD readout); type: cell-based; conditions: CAMHB-3% LHB medium, 35° C., 16-20 hours
Method: as §1, §2

[5] = Cellular toxicity assay (MTS) on PBMC; type: cell-based, human; conditions: human, peripheral blood mononuclear cells (PBMC); 24 hours incubation, MTS reagent; read-out: PBMC's TC50
Method: Compounds of the invention (see Table 6) were assayed for cellular toxicity as follows. Whole blood was drawn from a volunteer, and the red cells were separated from the buffy coat cells by centrifugation over ficoll-paque. The resulting peripheral blood mononuclear cells (PBMC) were collected from the interface and washed extensively with PBS by centrifugation to remove platelets and cellular debris. The cells were then plated in 96-well tissue culture plates at a density of 5×10^5 cells per mL at 200 μL per well. After an hour incubation, the candidate compounds were added at the appropriate concentrations diluted from DMSO stocks into assay buffer (RPMI medium supplemented with 10% FCS). The cells were incubated at 37° C., 100% humidity and 5% CO2 for 24 hours at which time MTS reagent was added per the manufacturer's (Promega) instructions. After 2-3 hours incubation the optical density of the wells was read on a spectrophotometer. […] The data are evaluated using equation 2 as described in Example 17, where bacterial cells are replaced by PBMC cells in the measurements. The data describes the toxicity of these compounds to a representative human cell population (PBMC's).

[6] = read-out: N. gonorrhoeae TRF IC50(μM) (Example 15)

| Compound | IC50 [1] | MIC ([2]; Neisseria gonorrhoeae) | IC50 [3, 6] | MIC ([4]; Streptococcus pyogenes) | CC50 at 24 h [5] | MIC [2] | MIC [4] | S. pyogenes MIC(μM) [4] | IC50 ([3]; N. gonorrhoeae TRF IC50(μM) (Example 15)) |
| --- | --- | --- | --- | --- | --- | --- | --- | --- | --- |
| CC(=NNC(=N)N)c1ccc(C(=O)Nc2cccc(C(C)=NNC(=N)N)c2)cc1 [MES 10648, Bisguanylhydrazone of 4-acetyl-N-(3-acetylphenyl)benzamide] | 2 µM | 10 µM (≈ 3.93 µg/mL) | 5 µM | 1 µM (≈ 0.393 µg/mL) | > 100 µM | – | – | – | – |
| O=C(O)c1ccc(-c2ccc(/C=C3\S/C(=N\c4ccccc4)N(c4ccccc4)C3=O)o2)cc1 [MES 110430] | – | – | 7 µM | – | – | 30 µM (≈ 14 µg/mL) | >100 µM | – | – |
| CC(=NNC(=N)N)c1ccc(NC(=O)Nc2ccc(C(C)=NNC(=N)N)cc2)cc1 [MES 10950, Bisguanylhydrazone of N,N′-bis(4-acetylphenyl)urea] | 7 µM | 30 µM (≈ 12.3 µg/mL) | 6 µM | 10 µM (≈ 4.08 µg/mL) | > 100 µM | – | – | – | – |
| CC(=NNC(=N)N)c1cccc(NC(=O)[C@@H]2Cc3ccccc3CN2C(=O)c2cccc(C(C)=NNC(=N)N)c2)c1 [MES 10848, Bisguanylhydrazone of (S)-2-(3-acetylbenzoyl)-N-(3-acetylphenyl)tetrahydro-isoquinoline-3-carboxamide] | 6 µM | 100 µM (≈ 55.3 µg/mL) | 3 µM | 10 µM (≈ 5.53 µg/mL) | > 100 µM | – | – | – | – |
| CC(=NNC(=N)N)c1cccc(NC(=O)[C@H](Cc2ccc(-c3ccccc3)cc2)NC(=O)c2ccccc2)c1 [MES 10910, Guanylhydrazone of (S)-1-benzoyl-N-(3-acetylphenyl) biphenylalaninamide] | – | – | 7 µM | – | – | – | – | – | – |
| CC(=NNC(=N)N)c1cccc(NC(=O)[C@H](CCc2ccccc2)NC(=O)c2cccc(I)c2)c1 [MES 10914, Guanylhydrazone of (S)-1-(3-iodobenzoyl)-N-(3-acetylphenyl) homophenyl-alaninamide] | – | – | 6 µM | – | – | – | – | – | – |
| CC(=NNC(=N)N)c1ccc(NC(=O)c2ccc(C(C)=NNC(=N)N)cc2)cc1 [MES 10948, Bisguanylhydrazone of 4-acetyl-N-(4-acetylphenyl)benzamide] | 2 µM and 1 µM | 3 µM (≈ 1.18 µg/mL) | 3 µM | 0.3 µM (≈ 0.118 µg/mL) | > 100 µM | – | – | – | – |
| N=C1/C(=C/c2ccc(-c3ccc(C(=O)O)cc3)o2)C(=O)N=C2SC(c3ccccc3)=NN12 [MES 110392] | – | – | 2 µM | – | – | 100 µM (≈ 44.2 µg/mL) | >100 µM | – | – |
| CC(=NNC(=N)N)c1cccc(NC(=O)c2ccc(-c3ccccc3)cc2)c1 [MES 10938, Guanylhydrazone of N-(3-acetylphenyl)-4-biphenylcarboxamide] | – | – | 80 µM | – | – | – | – | – | – |
| N=C1/C(=C/c2ccc(-c3ccc(C(=O)O)cc3)o2)C(=O)N=C2SC(Cc3cccs3)=NN12 [MES 110410] | – | – | 15 µM | – | – | 30 µM (≈ 13.9 µg/mL) | >100 µM | – | – |
| CC(=NNC(=N)N)c1cccc(NC(=O)[C@@H]2CCCN2C(=O)c2cccc(C(C)=NNC(=N)N)c2)c1 [MES 10926, Bisguanylhydrazone of (S)-1-(3-acetylbenzoyl)-N-(3-acetylphenyl) prolinamide] | 100 µM | 80 µM (≈ 39.2 µg/mL) | 43 µM | 30 µM (≈ 14.7 µg/mL) | > 100 µM | – | – | – | – |
| CC(=O)Oc1cccc2ccc(/C=C/c3ccc(C(=O)O)cc3)nc12 [MES 110394] | – | – | 9 µM | – | – | 10 µM (≈ 3.33 µg/mL) | – | >100− μM | – |
| O=C(O)c1ccc(-c2nc(-c3ccc(-c4nc(-c5ccc(C(=O)O)cc5)[nH]c4-c4ccccc4)cc3)c(-c3ccccc3)[nH]2)cc1 [MES 110417] | – | – | 10 µM | – | – | 30 µM (≈ 18.1 µg/mL) | >100 µM | – | – |
| CC(=NNC(=N)N)c1cccc(NC(=O)Nc2cccc(C(C)=NNC(=N)N)c2)c1 [MES 10949, Bisguanylhydrazone of N,N-bis(3-acetylphenyl)urea] | 30 µM | 100 µM (≈ 40.8 µg/mL) | 6 µM | 30 µM (≈ 12.3 µg/mL) | > 100 µM | – | – | – | – |
| CC(=NNC(=N)N)c1cccc(NC(=O)c2cccc(-c3ccccc3)c2)c1 [MES 10915, Guanylhydrazone of N-(3-acetylphenyl)-3-biphenylcarboxamide] | 10 µM | – | – | – | – | – | – | – | 16 µM |
